The values below come from the Biogen ADME set (Fang et al. 2023).

In brackets after ≈: the same amount, converted by molar mass. Some results are limits rather than exact numbers.

The conditions of the series: for aqueous solubility: pH 6.8.

In the case of `CS(=O)(=O)NC1CCN(C(=O)NCCc2ccc(F)cc2)CC1`, the MDR1-MDCK efflux ratio stood at 35.3; the intrinsic clearance, human liver microsomes was not above 4.74 mL/min/kg; the intrinsic clearance, rat liver microsomes is 61.4 mL/min/kg; the aqueous solubility is 67.9 µg/mL (≈ 198 µM).
On to `OC(CNCc1ccc(OCc2cccs2)cc1)c1ccccc1` (stereo unspecified), for which the aqueous solubility was 42.9 µg/mL (≈ 126 µM).
For the compound `CNC(=O)CN(C)c1cccc(F)c1C#N`, the MDR1-MDCK efflux ratio worked out at 0.738; the intrinsic clearance, human liver microsomes is not above 4.74 mL/min/kg; the intrinsic clearance, rat liver microsomes stood at 15.2 mL/min/kg; the aqueous solubility was 34.1 µg/mL (≈ 154 µM).
`CN(CC(=O)NC1CC1)C(=O)C1C2CC3CC(C2)CC1C3` (stereo unspecified): the MDR1-MDCK efflux ratio was 1.58; the intrinsic clearance, human liver microsomes is 21.7 mL/min/kg; the intrinsic clearance, rat liver microsomes is 463 mL/min/kg; the aqueous solubility turned out to be 50.8 µg/mL (≈ 175 µM).
The corresponding values for `CCOC(=O)c1ccc(NC(=O)Cn2cnc3ccccc32)cc1` are 4.28, 7.03 mL/min/kg, 521 mL/min/kg and 18.4 µg/mL (≈ 56.9 µM).
In turn, `O=C1OCCN1CCN1CCC(c2cc3ccccc3[nH]2)CC1` had an intrinsic clearance, human liver microsomes of 11.1 mL/min/kg and an intrinsic clearance, rat liver microsomes of 488 mL/min/kg.
Take `Cc1nn(C)c2sc(C(=O)N3CCC(C(=O)O)(c4ccccc4)CC3)cc12`: the MDR1-MDCK efflux ratio is 8.54; the intrinsic clearance, human liver microsomes was not above 4.74 mL/min/kg; the intrinsic clearance, rat liver microsomes is not above 10.7 mL/min/kg; the aqueous solubility came out at 73.7 µg/mL (≈ 192 µM).
Turning to `CCCCN1CCc2nc3cc(C4CC4)nn3c(O)c2C1`, the MDR1-MDCK efflux ratio came out at 26.5; the intrinsic clearance, human liver microsomes is not above 4.74 mL/min/kg; the intrinsic clearance, rat liver microsomes is not above 10.7 mL/min/kg.
For `COCCc1nc(-c2ccccc2-c2ccccc2)n(CCO)n1`, the MDR1-MDCK efflux ratio is 15.9; the intrinsic clearance, human liver microsomes came out at 24.5 mL/min/kg; the intrinsic clearance, rat liver microsomes was found to be 182 mL/min/kg; the aqueous solubility came out at 26.4 µg/mL (≈ 81.6 µM).
The corresponding values for `Cc1ccc(NC(=O)CN2CCCN(c3ccc(C(F)(F)F)cn3)CC2)cc1` are 0.857, 126 mL/min/kg, 602 mL/min/kg and 12.9 µg/mL (≈ 33 µM).
In turn, `O=C(Cc1ccc2c(c1)CCCC2)Nc1ccc(-n2cnnn2)cc1` showed an aqueous solubility of 0.95 µg/mL (≈ 2.85 µM).
`COc1cccc(CN(C)c2ncnc3c2CN(C)CC3)c1`: the MDR1-MDCK efflux ratio was found to be 0.754; the intrinsic clearance, human liver microsomes is 18.6 mL/min/kg; the intrinsic clearance, rat liver microsomes was determined as 183 mL/min/kg; the aqueous solubility was determined as 57.7 µg/mL (≈ 193 µM).
With `NC[C@@](O)(c1ccc(Cl)cc1)c1ccc(-c2cn[nH]c2)cc1`, the MDR1-MDCK efflux ratio was 1.61; the intrinsic clearance, human liver microsomes is not above 4.74 mL/min/kg; the intrinsic clearance, rat liver microsomes is 28 mL/min/kg.
Compound `O=C(COC(=O)c1cc(O)nc2ccccc12)c1ccc(Oc2c(Cl)cccc2[N+](=O)[O-])cc1` gave an intrinsic clearance, human liver microsomes of 986 mL/min/kg and an intrinsic clearance, rat liver microsomes of 184 mL/min/kg.
Turning to `Cc1ccc(-c2nc3ccccc3[nH]2)cc1NS(=O)(=O)c1ccc(Cl)cc1`, the MDR1-MDCK efflux ratio amounted to 4.88 and the aqueous solubility came to 0.28 µg/mL (≈ 0.704 µM).
On to `CC1CC(N)CCN1C(=O)c1cc(N2CCNC2=O)c(F)cc1F` (stereo unspecified), for which the MDR1-MDCK efflux ratio is 1.32; the fraction unbound, human plasma stood at 0.682; the intrinsic clearance, human liver microsomes was not above 4.74 mL/min/kg.
As for `Clc1ccc(CSc2nc(-c3ccccc3)c[nH]2)cn1`, the MDR1-MDCK efflux ratio was 0.621; the intrinsic clearance, human liver microsomes is 229 mL/min/kg; the intrinsic clearance, rat liver microsomes amounted to 2880 mL/min/kg.
Turning to `CC(=O)Nc1cc(CCC2CCNCC2)ccn1`, the MDR1-MDCK efflux ratio is 2.42; the intrinsic clearance, human liver microsomes was not above 4.74 mL/min/kg; the intrinsic clearance, rat liver microsomes is not above 10.7 mL/min/kg; the aqueous solubility worked out at 51 µg/mL (≈ 206 µM).
The corresponding values for `CC(C)n1nnnc1-c1ccc(N)cc1F` are 0.63, not above 4.74 mL/min/kg, 40.2 mL/min/kg and 23.5 µg/mL (≈ 106 µM).
The corresponding values for `CC(C)(C)C(=O)N1CCC(CN2CCCC[C@@H]2CO)CC1` are 14.3, not above 4.74 mL/min/kg, 29.4 mL/min/kg and 50.1 µg/mL (≈ 169 µM).
In the case of `N#Cc1cccc(-c2ccc(=O)n3c2[C@@H]2C[C@@H](CN(Cc4ccc(F)cc4)C2)C3)c1`, the MDR1-MDCK efflux ratio is 6.11; the intrinsic clearance, human liver microsomes stood at 218 mL/min/kg; the intrinsic clearance, rat liver microsomes turned out to be 1470 mL/min/kg; the aqueous solubility stood at 32.4 µg/mL (≈ 81.2 µM).
For the compound `Cc1nc(NCc2sccc2C)n(C)n1`, the MDR1-MDCK efflux ratio is 0.795; the intrinsic clearance, human liver microsomes was not above 4.74 mL/min/kg; the intrinsic clearance, rat liver microsomes came out at 21.6 mL/min/kg.
For `O=C(O)c1ccccc1-n1cnc(CN2CCCC2)c1`, the MDR1-MDCK efflux ratio was determined as 2.49; the intrinsic clearance, human liver microsomes is not above 4.74 mL/min/kg; the intrinsic clearance, rat liver microsomes was not above 10.7 mL/min/kg; the aqueous solubility worked out at 38.8 µg/mL (≈ 143 µM).
Take `CN1CCC(O)(CNS(=O)(=O)CC2CCCCC2)CC1`: the MDR1-MDCK efflux ratio worked out at 2.92; the intrinsic clearance, human liver microsomes was not above 4.74 mL/min/kg; the intrinsic clearance, rat liver microsomes was 387 mL/min/kg.
As for `Cc1ccc(-n2nc(C(=O)N3CC(O)C3)c3c2CCCC3)cc1`, the MDR1-MDCK efflux ratio amounted to 5.67; the intrinsic clearance, human liver microsomes amounted to 53.3 mL/min/kg; the intrinsic clearance, rat liver microsomes came to 182 mL/min/kg; the aqueous solubility turned out to be 36.5 µg/mL (≈ 117 µM).
Consider `COc1ccccc1/C=C/CN1C[C@H]2CCCN2C[C@@H]1C`, for which the MDR1-MDCK efflux ratio came to 0.741; the intrinsic clearance, human liver microsomes was found to be 16.8 mL/min/kg; the intrinsic clearance, rat liver microsomes was 1450 mL/min/kg.
Regarding `COc1ccccc1-c1nc(-c2ccc(NC(C)=O)cc2)c(C)s1`, the aqueous solubility worked out at 0.73 µg/mL (≈ 2.16 µM).
The compound `O=S(=O)(NCC1C2CC3CC(C2)CC1C3)C1CCOCC1` (stereo unspecified) showed an aqueous solubility of 58.2 µg/mL (≈ 186 µM).
Same read-out and setting: the figure for `CCOC(=O)N1CCC(C(=O)Nc2cccc(C)c2)CC1` is 56.3 µg/mL (≈ 194 µM).
`Cn1cc(CCNC(=O)N2CCc3sccc3C2)cn1`: the MDR1-MDCK efflux ratio was determined as 1.51; the intrinsic clearance, human liver microsomes is 15 mL/min/kg; the intrinsic clearance, rat liver microsomes is 68.4 mL/min/kg; the aqueous solubility was determined as 40 µg/mL (≈ 138 µM).
`N#Cc1ccccc1CN1C(=O)CCC1=O` registered an intrinsic clearance, human liver microsomes not above 4.74 mL/min/kg and an intrinsic clearance, rat liver microsomes of 20.4 mL/min/kg.
For the compound `Cc1ccc(N/N=C2\C(=O)N(C)N=C2Nc2ccccc2Cl)cc1`, the aqueous solubility is 0.5 µg/mL (≈ 1.46 µM).
On the same count and under the same terms, the figure for `CN(C)c1nc(-c2cccc(-c3ccccc3)c2)n[nH]1` is 0.81 µg/mL (≈ 3.06 µM).
For the compound `O=C(c1sc(N2CCOCC2)nc1-c1ccccc1)N1CCCCC1`, the MDR1-MDCK efflux ratio stood at 1.18; the intrinsic clearance, human liver microsomes is 45 mL/min/kg; the intrinsic clearance, rat liver microsomes is 845 mL/min/kg; the aqueous solubility was 58.4 µg/mL (≈ 163 µM).
For `Cc1noc(NCc2ccc(F)cc2C)n1`, the MDR1-MDCK efflux ratio is 0.589; the intrinsic clearance, human liver microsomes is not above 4.74 mL/min/kg; the intrinsic clearance, rat liver microsomes came to 68.3 mL/min/kg.
Compound `COc1ccc(C2(NCc3cnn(-c4ccccc4)c3)CCCC2)cc1` had an intrinsic clearance, human liver microsomes of 81.5 mL/min/kg; an intrinsic clearance, rat liver microsomes of 976 mL/min/kg; an aqueous solubility of 57.4 µg/mL (≈ 165 µM).
Regarding `Nc1ncc(C(=O)NC2CN(C(=O)C3CC3)C2)c2ccc(-c3cccc(F)c3)nc12`, the MDR1-MDCK efflux ratio stood at 18.1; the fraction unbound, human plasma turned out to be 0.042; the fraction unbound, rat plasma turned out to be 0.0241; the intrinsic clearance, human liver microsomes is not above 4.74 mL/min/kg. Besides, the intrinsic clearance, rat liver microsomes worked out at 29.5 mL/min/kg and the aqueous solubility is 7.6 µg/mL (≈ 18.7 µM).
For `CS(=O)(=O)N1CC(c2n[nH]c3ncccc23)C1`, the MDR1-MDCK efflux ratio turned out to be 1.41; the intrinsic clearance, human liver microsomes was not above 4.74 mL/min/kg; the intrinsic clearance, rat liver microsomes is not above 10.7 mL/min/kg; the aqueous solubility came out at 33.3 µg/mL (≈ 132 µM).
As for `COc1ccc(C(=O)Nc2ccc3oc(C)nc3c2)c(OC)c1`, the MDR1-MDCK efflux ratio came out at 0.547; the intrinsic clearance, human liver microsomes turned out to be 25.3 mL/min/kg; the intrinsic clearance, rat liver microsomes stood at 191 mL/min/kg; the aqueous solubility is 15.4 µg/mL (≈ 49.4 µM).
`Fc1ccc2oc(Cn3nnc(-c4ccsc4)n3)nc2c1` displayed an aqueous solubility of 30.2 µg/mL (≈ 100 µM).
`Cc1cc(C)c2c(C(=O)N3CC4(CNC(=O)N4)C3)cc(C)nc2c1`: the MDR1-MDCK efflux ratio is 8.46; the intrinsic clearance, human liver microsomes is not above 4.74 mL/min/kg; the intrinsic clearance, rat liver microsomes came out at 30.7 mL/min/kg.
`CC(C)c1cc(NC(=O)Cn2nc(-c3ccccc3)ccc2=O)[nH]n1`: the aqueous solubility stood at 6.51 µg/mL (≈ 19.3 µM).
In the case of `CN(C)c1cnn(CCC(C#N)(c2ccccc2)c2ccccc2)c(=O)c1`, the MDR1-MDCK efflux ratio came to 2.74; the intrinsic clearance, human liver microsomes was 124 mL/min/kg; the intrinsic clearance, rat liver microsomes was 1260 mL/min/kg; the aqueous solubility was 22.2 µg/mL (≈ 62 µM).
Take `c1ccc(-c2nccc(NCc3nnc4n3CCCCC4)n2)cc1`: the intrinsic clearance, human liver microsomes turned out to be 78.9 mL/min/kg and the intrinsic clearance, rat liver microsomes was found to be 448 mL/min/kg.
In the case of `Cc1nccc(-c2cccc(NCC(=O)N(C)c3ccccc3)c2)n1`, the MDR1-MDCK efflux ratio turned out to be 0.964; the intrinsic clearance, human liver microsomes was 22 mL/min/kg; the intrinsic clearance, rat liver microsomes is 401 mL/min/kg; the aqueous solubility was 38.2 µg/mL (≈ 115 µM).
With `Cc1nc(O)cc(C2CCN(c3cnccn3)CC2)n1`, the MDR1-MDCK efflux ratio worked out at 42; the intrinsic clearance, human liver microsomes was not above 4.74 mL/min/kg; the intrinsic clearance, rat liver microsomes turned out to be 20.1 mL/min/kg; the aqueous solubility worked out at 50.7 µg/mL (≈ 187 µM).
Consider `O=C(c1ccccc1-n1cccn1)N1CCN(Cc2cccnc2)CC1`, for which the MDR1-MDCK efflux ratio is 19.3; the intrinsic clearance, human liver microsomes was determined as 56 mL/min/kg; the intrinsic clearance, rat liver microsomes came out at 605 mL/min/kg; the aqueous solubility is 54.4 µg/mL (≈ 157 µM).
Regarding `Cc1ccc(C(=O)N2CCC(Cc3ccccc3-c3ccccc3)(C(=O)N(C)C)CC2)s1`, the MDR1-MDCK efflux ratio came out at 1.12; the fraction unbound, human plasma was found to be 0.00509; the fraction unbound, rat plasma came to 0.00257; the intrinsic clearance, human liver microsomes is 768 mL/min/kg. For the same compound, the intrinsic clearance, rat liver microsomes amounted to 1520 mL/min/kg and the aqueous solubility was found to be 23.8 µg/mL (≈ 53.3 µM).
The compound `CC1(C)[C@@H]2C[C@H]1[C@@]1(O)[C@@H](C2)Oc2c(ccc(O)c2C(=O)NCCc2ccccn2)[C@@H]1O` showed an intrinsic clearance, human liver microsomes of 555 mL/min/kg and an intrinsic clearance, rat liver microsomes of 910 mL/min/kg.

What is called aqueous solubility is the concentration that dissolves in the medium under given conditions. Read a high aqueous solubility as much dissolved substance.
